Source: PubChem BioAssay (NCI)
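Grown in 96-well plates, cells were treated for 48 hours with each compound at five concentrations. Insufficient inhibition: endpoint recorded as highest concentration tested. Abbreviation: GI50, concentration required for 50% inhibition of growth. At the TGI there is no net growth.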

What was measured:
Assay in all cases: NCI anticancer screen, dose series, 48 h
[1] = test system: CCRF-CEM leukemia
[2] = test system: COLO 205 colon
[3] = test system: HCT-116 colon
[4] = test system: K-562 leukemia
[5] = test system: LOX IMVI melanoma
[6] = test system: MDA-MB-231 breast
[7] = test system: OVCAR-3 ovarian
[8] = test system: RPMI-8226 leukemia
[9] = test system: SN12C renal
[10] = test system: UO-31 renal

Compound	GI50 [1]	TGI [1]	GI50 [2]	TGI [2]	GI50 [3]	TGI [3]	GI50 [4]	TGI [4]	GI50 [5]	TGI [5]	GI50 [6]	TGI [6]	GI50 [7]	TGI [7]	GI50 [8]	TGI [8]	GI50 [9]	TGI [9]	GI50 [10]	TGI [10]
Nc1ncn([C@H]2CC(O)[C@@H](CO)S2)c(=O)n1 (stereo partly drawn)	2.45 µM	> 100 µM	0.839 µM	> 100 µM	0.371 µM	> 100 µM	2.2 µM	> 100 µM	4.48 µM	> 100 µM	3.57 µM	> 100 µM	6.08 µM	> 100 µM	6.22 µM	> 100 µM	3.6 µM	> 100 µM	2.93 µM	> 100 µM
S=c1ssnc1-c1cc2ccccc2o1	3.23 µM	> 100 µM	14.8 µM	39.5 µM	9.3 µM	36.8 µM	22.5 µM	> 100 µM	4.12 µM	15.7 µM	13.3 µM	29.4 µM	15.6 µM	49.2 µM	2.36 µM	25.7 µM	13.8 µM	32.1 µM	13.4 µM	30 µM
CC(C)=C[C@@H]1C[C@H](C)[C@H]2CC[C@H](C)c3c(O)c(OC4OC(C)C(O)C(O)C4O)c(C)c1c32 (stereo partly drawn)	12.8 µM	26.3 µM	14.4 µM	27.9 µM	10.9 µM	22.9 µM	3.97 µM	19.6 µM	11.8 µM	24.4 µM	13.2 µM	26.6 µM	1.93 µM	8.43 µM	12.5 µM	27.6 µM	11.3 µM	23.5 µM	14.6 µM	27.8 µM
COc1cc(-c2nc(-c3ccccc3)c(-c3ccccc3)[nH]2)cc(OC)c1O	23.4 µM	70.4 µM	19.6 µM	36.4 µM	14.4 µM	27.7 µM	21 µM	> 100 µM	17.2 µM	32.6 µM	16.7 µM	34.2 µM	18.3 µM	34.2 µM	24.1 µM	83 µM	17.6 µM	37.5 µM	13.2 µM	31 µM
COc1cc2c(c(OC)c1OC)-c1cc(I)c(O)cc1[C@@H](NC(C)=O)CC2	0.0364 µM	> 100 µM	0.0385 µM	0.155 µM	0.0409 µM	19.4 µM	0.0324 µM	> 100 µM	0.075 µM	> 100 µM	0.0859 µM		0.0258 µM	0.0623 µM	0.035 µM	2.53 µM	0.106 µM	> 100 µM	0.556 µM	
CCSC[C@@H]1C[C@](O)(c2ccccc2)[C@@H](c2ccccc2)O1	> 71.5 µM	> 100 µM	> 78.9 µM	> 100 µM	58.6 µM	> 100 µM	12.3 µM	> 100 µM	> 94.2 µM	> 100 µM	> 95 µM	> 100 µM	70.1 µM	> 100 µM	28.7 µM	> 100 µM	> 94.5 µM	> 100 µM	51.2 µM	> 100 µM
